Like-named read-outs stand apart in the source and are kept apart here.
What was measured:
[1] = target: T1, β1-AR (Homo sapiens, UniProt P08588); assay: Competition binding assay, recombinant β1-AR
T1 construct: expressed in transfected cells; membranes prepared from them

[2] = target: β3-AR (Homo sapiens, UniProt P13945); assay: Adenylyl cyclase functional assay in CHO cells stably expressing human β3-AR; format: cell-based; set-up: expressed in transfected cells
Experimental: The degree of activation relative to a proven full agonist (isoproterenol) was measured along with the compound EC50.

[3] = Phase 2b OAB study, trough concentrations; format: in vivo, human; details: OAB patients
[4] = clinical; details: human, 100 mg
Text: The relationship between clearance and renal function was modeled using linear regression.

[5] = in vivo
[6] = target: CYP2D6 (Homo sapiens, UniProt P10635); details: Rutman et al. 2019; cited from earlier work
[7] = Phase 2b OAB study, cardiovascular safety (HR, SBP, DBP, orthostatic AEs); format: in vivo, human
Text: None led to discontinuation. The overall incidence of orthostatic symptoms was low.
Small differences in the percent of subjects exceeding categorical heart rate and blood pressure thresholds for vibegron were similar to those in the tolterodine arm.

[8] = Phase 1 safety data; format: in vivo; details: Phase 1, single 2-600 mg, multiple 25-400 mg
Text: Safety data from 16 Phase 1 studies, which include 15 completed Phase 1 studies and 1 study that was terminated early (this study was terminated for reasons unrelated to efficacy or safety) was collected.

[9] = human, in vivo
Text: The accumulation potential of circulating metabolites in plasma was not estimated due to insufficient data from later time points to enable estimation of half-life.

[10] = target: CYP3A4 (Homo sapiens, UniProt P08684); assay: In vitro CYP metabolism; format: in vitro ADME
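Throughout, for Cmax: pharmacokinetic parameters in patients with renal impairment of differing severity, statistically compared against matched healthy subjects as controls.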

β3-AR, sequence (P13945 whole entry): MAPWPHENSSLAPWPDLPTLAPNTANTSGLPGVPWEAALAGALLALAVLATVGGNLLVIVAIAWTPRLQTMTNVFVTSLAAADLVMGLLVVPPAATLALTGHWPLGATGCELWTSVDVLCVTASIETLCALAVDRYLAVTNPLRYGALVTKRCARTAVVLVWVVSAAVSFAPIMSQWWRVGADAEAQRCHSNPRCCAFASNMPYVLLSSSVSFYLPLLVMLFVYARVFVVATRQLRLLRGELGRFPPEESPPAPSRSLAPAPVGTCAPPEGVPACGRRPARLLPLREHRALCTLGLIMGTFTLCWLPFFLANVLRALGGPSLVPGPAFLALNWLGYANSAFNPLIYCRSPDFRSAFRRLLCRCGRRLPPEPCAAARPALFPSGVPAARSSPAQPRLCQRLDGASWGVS
CYP2D6, sequence (P10635 whole entry): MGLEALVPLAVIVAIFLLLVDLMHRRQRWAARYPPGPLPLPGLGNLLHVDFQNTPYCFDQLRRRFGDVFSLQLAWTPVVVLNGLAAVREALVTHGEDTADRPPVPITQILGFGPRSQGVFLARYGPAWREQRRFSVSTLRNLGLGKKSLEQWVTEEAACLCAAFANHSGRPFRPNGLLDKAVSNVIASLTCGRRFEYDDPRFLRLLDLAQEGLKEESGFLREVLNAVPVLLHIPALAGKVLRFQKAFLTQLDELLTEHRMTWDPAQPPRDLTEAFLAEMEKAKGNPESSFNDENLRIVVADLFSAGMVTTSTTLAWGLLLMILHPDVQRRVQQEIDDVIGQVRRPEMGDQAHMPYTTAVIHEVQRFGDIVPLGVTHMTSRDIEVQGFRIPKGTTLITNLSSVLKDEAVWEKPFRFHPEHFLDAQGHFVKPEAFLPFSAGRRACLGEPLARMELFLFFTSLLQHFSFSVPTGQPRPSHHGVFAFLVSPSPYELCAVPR
CYP3A4, sequence (P08684 whole entry): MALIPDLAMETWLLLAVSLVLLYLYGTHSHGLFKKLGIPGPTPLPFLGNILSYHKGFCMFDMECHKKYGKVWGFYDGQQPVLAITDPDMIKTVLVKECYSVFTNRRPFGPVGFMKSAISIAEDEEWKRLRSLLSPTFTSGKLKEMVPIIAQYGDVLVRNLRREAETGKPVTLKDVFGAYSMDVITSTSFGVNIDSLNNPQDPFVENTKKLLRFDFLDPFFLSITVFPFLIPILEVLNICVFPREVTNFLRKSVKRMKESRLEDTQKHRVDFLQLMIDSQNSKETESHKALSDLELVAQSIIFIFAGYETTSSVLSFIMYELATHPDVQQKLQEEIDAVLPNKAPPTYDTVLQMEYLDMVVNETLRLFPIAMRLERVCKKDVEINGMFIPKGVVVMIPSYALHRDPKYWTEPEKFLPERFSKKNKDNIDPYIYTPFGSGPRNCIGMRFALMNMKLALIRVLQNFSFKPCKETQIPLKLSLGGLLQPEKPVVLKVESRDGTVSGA
T1 sequence (P08588 whole entry): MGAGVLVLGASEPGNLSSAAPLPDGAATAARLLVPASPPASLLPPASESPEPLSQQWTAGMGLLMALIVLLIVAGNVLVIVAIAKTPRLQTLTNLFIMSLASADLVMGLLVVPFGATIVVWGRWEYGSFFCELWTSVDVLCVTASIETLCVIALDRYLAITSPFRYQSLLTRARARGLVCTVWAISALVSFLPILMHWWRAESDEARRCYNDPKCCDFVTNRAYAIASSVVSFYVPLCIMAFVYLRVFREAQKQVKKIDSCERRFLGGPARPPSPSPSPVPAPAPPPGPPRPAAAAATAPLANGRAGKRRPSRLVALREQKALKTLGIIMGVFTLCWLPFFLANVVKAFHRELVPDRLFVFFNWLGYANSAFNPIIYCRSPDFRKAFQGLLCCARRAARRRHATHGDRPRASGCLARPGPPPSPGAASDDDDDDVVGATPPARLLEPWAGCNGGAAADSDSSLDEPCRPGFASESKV

O=C(Nc1ccc(C[C@@H]2CC[C@H]([C@H](O)c3ccccc3)N2)cc1)[C@@H]1CCc2nccc(=O)n21 [Vibegron, (6S)-N-[4-[[(2S,5R)-5-[(R)-hydroxy(phenyl)methyl]pyrrolidin-2-yl]methyl]phenyl]-4-oxo-7,8-dihydro-6H-pyrrolo[1,2-a]pyrimidine-6-carboxamide]
binding to β1-AR [1]: does not bind
EC50 [2]: 1.1 nM
EC50 ([2]; 40% human serum): 1.7 nM
mean (±SD) Ctrough ([3]; 50 mg QD): 27.4 (±18.3) ng/mL
mean (±SD) Ctrough ([3]; 100 mg QD): 73.6 (±65.5) ng/mL
Cmax ([4]; in vivo): 107 ng/mL
Cmax ([4]; plasma, oral): 152 ng/mL
half-life ([4]; plasma, oral): 131 h
effect on QTc or blood pressure [5]: no clinically meaningful effect
CYP2D6 inhibition [6]: does not inhibit CYP2D6
DBP change from baseline, mean (95% CI) max, week 1 to 8 ([7]; 3 mg): 5.03 (3.92, 6.15) mm Hg
DBP change from baseline, mean (95% CI), week 1 ([7]; 3 mg): −0.37 (−1.69, 0.95) mm Hg
HR change from baseline, mean (95% CI) maximum, week 1 to 8 ([7]; 3 mg): 5.57 (4.25, 6.90) bpm
HR change from baseline, mean (95% CI), week 1 ([7]; 3 mg): 0.36 (−0.90, 1.62) bpm
SBP change from baseline, mean (95% CI) maximum, week 1 to 8 ([7]; 3 mg): 7.14 (5.18, 9.10) mm Hg
SBP change from baseline, mean (95% CI), week 1 ([7]; 3 mg): −0.35 (−2.34, 1.65) mm Hg
DBP change from baseline, mean (95% CI) max, week 1 to 8 ([7]; 15 mg): 6.37 (5.20, 7.53) mm Hg
DBP change from baseline, mean (95% CI), week 1 ([7]; 15 mg): 0.03 (−1.52, 1.59) mm Hg
HR change from baseline, mean (95% CI) maximum, week 1 to 8 ([7]; 15 mg): 6.56 (5.20, 7.92) bpm
HR change from baseline, mean (95% CI), week 1 ([7]; 15 mg): 0.35 (−1.15, 1.85) bpm
SBP change from baseline, mean (95% CI) maximum, week 1 to 8 ([7]; 15 mg): 8.93 (7.18, 10.67) mm Hg
SBP change from baseline, mean (95% CI), week 1 ([7]; 15 mg): −0.34 (−2.46, 1.78) mm Hg
subjects with orthostatic related AEs ([7]; 15 mg): 0.3%
DBP change from baseline, mean (95% CI) max, week 1 to 8 ([7]; 50 mg): 4.19 (3.10, 5.29) mm Hg
DBP change from baseline, mean (95% CI), week 1 ([7]; 50 mg): −0.70 (−2.07, 0.67) mm Hg
HR change from baseline, mean (95% CI) maximum, week 1 to 8 ([7]; 50 mg): 5.49 (4.28, 6.69) bpm
HR change from baseline, mean (95% CI), week 1 ([7]; 50 mg): 0.29 (−0.88, 1.46) bpm
SBP change from baseline, mean (95% CI) maximum, week 1 to 8 ([7]; 50 mg): 7.01 (5.31, 8.70) mm Hg
SBP change from baseline, mean (95% CI), week 1 ([7]; 50 mg): −0.79 (−2.65, 1.08) mm Hg
SBP and DBP change, difference from placebo ([7]; 50 mg and 100 mg, week 1 and maximum over 8 weeks): < 1 mm Hg
DBP change from baseline, mean (95% CI) max, week 1 to 8 ([7]; 100 mg): 4.80 (3.88, 5.72) mm Hg
DBP change from baseline, mean (95% CI), week 1 ([7]; 100 mg): −0.69 (−1.72, 0.34) mm Hg
HR change from baseline, mean (95% CI) maximum, week 1 to 8 ([7]; 100 mg): 6.12 (5.10, 7.15) bpm
HR change from baseline, mean (95% CI), week 1 ([7]; 100 mg): 0.35 (−0.69, 1.38) bpm
SBP change from baseline, mean (95% CI) maximum, week 1 to 8 ([7]; 100 mg): 6.51 (5.09, 7.93) mm Hg
SBP change from baseline, mean (95% CI), week 1 ([7]; 100 mg): −0.77 (−2.22, 0.68) mm Hg
subjects with orthostatic related AEs ([7]; 100 mg): 1.1%
HR mean maximum change over 8 weeks, difference from placebo ([7]; in vivo): < 2 bpm
tolerability [8]: generally well tolerated
dose recovered in feces [9]: approximately 59%
dose recovered in urine [9]: ~20%
total recovery of radioactivity in excreta [9]: 79%
share of plasma radioactivity ([9]; 2 hr): ~78%
share of plasma radioactivity ([9]; 4 hr): ~73%
CYP responsible for in vitro metabolism [10]: CYP3A4 is the predominant CYP responsible for in vitro metabolism
